For orientation: IC50 means the point on the concentration scale where inhibition reaches its midpoint.

Drawing on ChEMBL document CHEMBL4725445, “Discovery of a Cyclic Choline Analog That Inhibits Anaerobic Choline Metabolism by Human Gut Bacteria” (ACS Med Chem Lett, 2020), this text covers IC50 for 17 compounds.

Bounds are passed on as bounds.

A short description of assay [1]: Inhibition of CutC in Escherichia coli MS 200-1 assessed as reduction in TMA formation incubated for 3.5 hrs under anaerobic condition in presence of d9-choline by LC-MS-MS analysis.
Assay [2] in a line: Inhibition of Escherichia coli MS 69-1 CutC assessed as TMA formation by LC-MS/MS.
Assay [3] is described as follows: Inhibition of Proteus mirabilis CutC assessed as TMA formation by LC-MS/MS.
Assay [4] is described as follows: Inhibition of Klebsiella sp. MS 92-3 CutC assessed as TMA formation by LC-MS/MS. Details: species or system Klebsiella pneumoniae.
The nature of assay [5]: Inhibition of Clostridium sporogenes CutC assessed as TMA formation by LC-MS/MS.
Assay [6] can be described thus: Inhibition of TMA formation in human fecal suspension by LC-MS/MS. It counts as functional, tissue-based, Feces.
In assay [7] the target is T1, Choline trimethylamine-lyase (Desulfovibrio alaskensis, UniProt Q30W70).
T1 sequence (Q30W70 whole entry): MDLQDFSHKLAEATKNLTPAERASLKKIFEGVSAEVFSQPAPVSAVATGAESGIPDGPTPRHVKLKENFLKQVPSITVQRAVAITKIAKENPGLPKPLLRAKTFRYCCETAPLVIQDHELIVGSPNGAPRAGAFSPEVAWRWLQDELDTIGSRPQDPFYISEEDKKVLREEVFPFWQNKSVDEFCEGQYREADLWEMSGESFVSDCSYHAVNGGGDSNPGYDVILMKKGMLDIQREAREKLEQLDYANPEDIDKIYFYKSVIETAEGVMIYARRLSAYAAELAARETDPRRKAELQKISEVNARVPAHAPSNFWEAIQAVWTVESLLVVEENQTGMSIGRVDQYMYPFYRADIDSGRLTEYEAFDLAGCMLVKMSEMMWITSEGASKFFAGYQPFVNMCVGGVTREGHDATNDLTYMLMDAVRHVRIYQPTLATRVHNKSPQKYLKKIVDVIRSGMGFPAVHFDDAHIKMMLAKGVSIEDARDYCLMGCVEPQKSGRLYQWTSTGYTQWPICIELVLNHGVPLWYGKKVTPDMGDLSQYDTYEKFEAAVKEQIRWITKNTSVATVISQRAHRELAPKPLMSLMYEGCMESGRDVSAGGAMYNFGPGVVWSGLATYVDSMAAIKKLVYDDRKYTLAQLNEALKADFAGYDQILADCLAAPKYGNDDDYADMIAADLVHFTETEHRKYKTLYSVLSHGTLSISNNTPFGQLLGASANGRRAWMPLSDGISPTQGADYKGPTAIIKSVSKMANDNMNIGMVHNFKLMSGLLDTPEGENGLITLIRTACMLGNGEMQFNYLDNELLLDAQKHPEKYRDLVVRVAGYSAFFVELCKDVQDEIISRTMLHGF
In words: Inhibition of Desulfovibrio desulfuricans (strain G20) CutC assessed as reduction in TMA by spectrophotometry.

For the compound `CN1CCC(O)CC1`, the IC50 in assay [1] came out at 1600 µM.

For `CN1CC=C[C@H](O)C1`, the IC50 in assay [1] is 9.8 µM; in assay [2], 22 µM; in assay [3] it was 0.092 mM; in assay [4], 4 µM; in assay [5], 12 µM; in assay [6], 60 µM.

For the compound `CN1CCCC(=O)C1`, the half-inhibitory concentration (IC50) is 27000 µM in assay [1] and greater than 10000 µM in assay [7].

`CN1CCC(O)C1` (stereo not drawn): the concentration for half-maximal inhibition (IC50) in assay [1] stood at 6300 µM.

Turning to `CC1=CC(O)CN(C)C1` (stereo not drawn), the IC50 in assay [1] is 920 µM.

For `OC1C=CCN(C2CCC2)C1` (stereo not drawn), the results for the half-maximal inhibitory concentration (IC50) in assay [1] and in assay [7] were 190 µM and 200 µM, respectively.

Regarding `[2H]C1(O)C=CCN(C)C1` (stereo not drawn), the 50% inhibitory concentration (IC50) in assay [1] was 30 µM.

As for `CN1CC=CC(O)C1` (stereo not drawn), the IC50 in assay [1] worked out at 10 µM.

Take `CC(=O)OC1C=CCN(C)C1` (stereo not drawn): in assay [1], the half-inhibitory concentration (IC50) came to 1800 µM.

On to `C[N+]1(C)CC=CC(O)C1` (stereo not drawn), for which, in assay [1], the half-maximal inhibitory concentration (IC50) was found to be 7.6 µM.

`CCCN1CC=CC(O)C1` (stereo not drawn): the concentration for half-maximal inhibition (IC50) in assay [1] was found to be 200 µM.

On to `CN1CC=C[C@@H](O)C1`, for which, in assay [1], the IC50 amounted to 31 µM.

Take `OC1C=CCOC1` (stereo not drawn): the IC50 in assay [1] is 80 µM.

For the compound `OC1C=CCN(Cc2ccccc2)C1` (stereo not drawn), the IC50 in assay [1] worked out at 370 µM.

For the compound `OC1C=CCCC1` (stereo not drawn), the half-inhibitory concentration (IC50) in assay [1] is 260 µM.

As for `CN1CCCC(O)CC1` (stereo not drawn), the IC50 in assay [1] amounted to 760 µM.

With `C[N+](C)(C)CC=O` [BETAINE ALDEHYDE], the IC50 in assay [2] came to 465 µM; in assay [3], 2.49 mM; in assay [4], 212 µM; in assay [5], 1000 µM; in assay [6], 1270 µM.
